Measurements: patent publication US11466031B2, “Polymorphic forms of bictegravir and its sodium salt” (Mylan Laboratories Limited, priority 2018, dated 2022)

How the values were obtained:
[1] = Storage stability: HPLC purity; format: physicochemical
[2] = Storage stability: polymorph integrity by PXRD; format: physicochemical
Protocol: The crystalline forms of bictegravir disclosed herein may be characterized by X-ray powder diffraction pattern (PXRD). Samples of each polymorph were analyzed on a BRUKER D-8 Discover powder diffractometer equipped with goniometer of θ/2θ configuration and Lynx Eye detector. The Cu-anode X-ray tube was operated at 40 kV and 30 mA. The experiments were conducted over the 2θ range of 2.0°-50.0°, 0.030° step size and 0.4 seconds step time. […] The samples were analyzed by PXRD for polymorph integrity.

[3] = at 25° C./60% RH, 6 months, listed as crystalline bictegravir Form M1
[4] = at 40° C./75% RH, 6 months, listed as crystalline bictegravir Form M1
[5] = at 25° C./60% RH, 6 months, listed as Form M2
[6] = at 40° C./75% RH, 6 months, listed as Form M2
[7] = at 25° C./60% RH, 6 months, listed as amorphous bictegravir sodium
[8] = at 40° C./75% RH, 6 months, listed as amorphous bictegravir sodium

Row | Compound | HPLC purity ([1]; at 25° C./60% RH, 1 months) | HPLC purity ([1]; at 25° C./60% RH, 2 months) | HPLC purity ([1]; at 25° C./60% RH, 3 months) | HPLC purity ([1]; at 25° C./60% RH, 6 months) | HPLC purity ([1]; at 25° C./60% RH, Initial) | HPLC purity ([1]; at 40° C./75% RH, 1 months) | HPLC purity ([1]; at 40° C./75% RH, 2 months) | HPLC purity ([1]; at 40° C./75% RH, 3 months) | HPLC purity ([1]; at 40° C./75% RH, 6 months) | HPLC purity ([1]; at 40° C./75% RH, Initial) | PXRD ([2]; at 25° C./60% RH, 1 months) | PXRD ([2]; at 25° C./60% RH, 2 months) | PXRD ([2]; at 25° C./60% RH, 3 months) | PXRD ([2]; at 25° C./60% RH, 6 months) | PXRD ([2]; at 25° C./60% RH, Initial) | PXRD ([2]; at 40° C./75% RH, 1 months) | PXRD ([2]; at 40° C./75% RH, 2 months) | PXRD ([2]; at 40° C./75% RH, 3 months) | PXRD ([2]; at 40° C./75% RH, 6 months) | PXRD ([2]; at 40° C./75% RH, Initial) | other results
1 | O=C(NCc1c(F)cc(F)cc1F)c1cn2c(c(O)c1=O)C(=O)N1[C@H]3CC[C@H](C3)O[C@@H]1C2 [Bictegravir Form M1, bictegravir] | 99.68 | 99.67 | 99.73 | 99.73 | 99.66 | 99.67 | 99.69 | 99.80 | 99.78 | 99.66 | Stable | Stable | Stable | Stable | Crystalline | Stable | Stable | Stable | Stable | Crystalline | HPLC purity [1, 3]: no change; HPLC purity [1, 4]: no change; PXRD [2, 3]: no change; PXRD [2, 4]: no change
2 | O=C(NCc1c(F)cc(F)cc1F)c1cn2c(c(O)c1=O)C(=O)N1[C@H]3CC[C@H](C3)O[C@@H]1C2 [Bictegravir Form M2, bictegravir] | 99.68 | 99.67 | 99.73 | 99.73 | 99.68 | 99.67 | 99.69 | 99.73 | 99.71 | 99.68 | Stable | Stable | Stable | Stable | Crystalline | Stable | Stable | Stable | Stable | Crystalline | HPLC purity [1, 5]: no change; HPLC purity [1, 6]: no change; PXRD [2, 5]: no change; PXRD [2, 6]: no change
3 | O=C(NCc1c(F)cc(F)cc1F)c1cn2c(c([O-])c1=O)C(=O)N1[C@@H]3CC[C@@H](C3)O[C@H]1C2.[Na+] [Bictegravir Sodium Amorphous form, (2R,5S,13aR)-2,5-Methanopyrido[1′,2′:4,5]pyrazino[2,1-b][1,3]oxazepine-10-carboxamide, 2,3,4,5,7,9, 13,13a-octahydro-8-hydroxy-7,9-dioxo-N-[(2,4,6-trifluorophenyl)methyl]-, sodium salt (1:1)] | 99.68 | 99.52 | 99.54 | 99.46 | 99.48 | 99.68 | 99.54 | 99.48 | 99.31 | 99.48 | Stable | Stable | Stable | Stable | Amorphous | Stable | Stable | Stable | Stable | Amorphous | HPLC purity [1, 7]: no change; HPLC purity [1, 8]: no change; PXRD [2, 7]: no change; PXRD [2, 8]: no change
